Each block holds one compound with its values, some of them ahead of it.
What was measured:
Format in all cases: functional, cell-based
IGR-1 = experiment: cells; details: Homo sapiens;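 further: growth inhibition of human IGR-1 cells, read out with a cell viability assay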
Description: SANGER: Inhibition of human IGR-1 cell growth in a cell viability assay.

NCI-H810 = experiment: cells; details: Homo sapiens;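 further: IC50 reflects inhibition of cancer cell line growth, read out with a cell viability assay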
Description: SANGER: Inhibition of human NCI-H810 cell growth in a cell viability assay.

786-0 = experiment: cells; details: Homo sapiens
Description: SANGER: Inhibition of human 786-0 cell growth in a cell viability assay.

D-392MG = experiment: cells; details: Homo sapiens
D-566MG = experiment: cells; details: Homo sapiens
DMS-114 = experiment: cells; details: Homo sapiens
EM-2 = experiment: cells; details: Homo sapiens;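 further: growth inhibition of EM-2 cells, read out with a cell viability assay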
Description: SANGER: Inhibition of human EM-2 cell growth in a cell viability assay.

ES7 = experiment: cells; details: Homo sapiens;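 further: growth inhibition of cultured human ES7 cells, read out as cell viability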
Description: SANGER: Inhibition of human ES7 cell growth in a cell viability assay.

K5 = experiment: cells; details: Homo sapiens
Description: SANGER: Inhibition of human K5 cell growth in a cell viability assay.

L-363 = experiment: cells; details: Homo sapiens
Description: SANGER: Inhibition of human L-363 cell growth in a cell viability assay.

LB1047-RCC = experiment: cells; details: Homo sapiens
Description: SANGER: Inhibition of human LB1047-RCC cell growth in a cell viability assay.

MEG-01 = experiment: cells; details: Homo sapiens;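 further: growth inhibition of MEG-01 cells, read out by a cell viability assay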
Description: SANGER: Inhibition of human MEG-01 cell growth in a cell viability assay.

MHH-NB-11 = experiment: cells; details: Homo sapiens;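 further: growth inhibition of human MHH-NB-11 cells, read out by a cell viability assay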
Description: SANGER: Inhibition of human MHH-NB-11 cell growth in a cell viability assay.

NCI-H1581 = experiment: cells; details: Homo sapiens;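 further: cell growth inhibition read out by a viability assay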
Description: SANGER: Inhibition of human NCI-H1581 cell growth in a cell viability assay.

NCI-H446 = experiment: cells; details: Homo sapiens;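 further: growth inhibition of NCI-H446 cells determined by a cell viability assay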
Description: SANGER: Inhibition of human NCI-H446 cell growth in a cell viability assay.

A2780 = experiment: cells; details: Homo sapiens;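 further: growth inhibition of A2780 cells, read out with a cell viability assay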
Description: SANGER: Inhibition of human A2780 cell growth in a cell viability assay.

A-427 = experiment: cells; details: Homo sapiens;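 further: growth inhibition of human A-427 cells, read out by a cell viability assay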
Description: SANGER: Inhibition of human A427 cell growth in a cell viability assay.

AGS = experiment: cells; details: Homo sapiens;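 further: growth inhibition of AGS cells, determined with a cell viability assay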
Description: SANGER: Inhibition of human AGS cell growth in a cell viability assay.

CHP-212 = experiment: cells; details: Homo sapiens
Description: SANGER: Inhibition of human CHP-212 cell growth in a cell viability assay.

KU812 cell line = experiment: cells; details: Homo sapiens;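 further: growth inhibition of KU812 cells, read out with a cell viability assay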
Description: SANGER: Inhibition of human KU812 cell growth in a cell viability assay.

LXF-289 cell line = experiment: cells; details: Homo sapiens
Description: SANGER: Inhibition of human LXF-289 cell growth in a cell viability assay.

A253 cell line = experiment: cells; details: Homo sapiens;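 further: growth inhibition of A253 cells, read out with a cell viability assay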
Description: SANGER: Inhibition of human A253 cell growth in a cell viability assay.

BC1 cell line = experiment: SANGER: Inhibition of human BC-1 cell growth in a cell viability assay.
COLO-824 = experiment: cells; details: Homo sapiens
Description: SANGER: Inhibition of human COLO-824 cell growth in a cell viability assay.

COR-L88 = experiment: cells; details: Homo sapiens;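 further: growth inhibition of COR-L88 cells, read out with a cell viability assay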
Description: SANGER: Inhibition of human COR-L88 cell growth in a cell viability assay.

CaR-1 = experiment: cells; details: Homo sapiens;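 further: growth inhibition of human CaR-1 cancer cells, read out with a cell viability assay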
Description: SANGER: Inhibition of human CaR-1 cell growth in a cell viability assay.

DMS-273 = experiment: cells; details: Homo sapiens
Description: SANGER: Inhibition of human DMS-273 cell growth in a cell viability assay.

DSH1 = experiment: cells; details: Homo sapiens;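 further: growth inhibition of human DSH1 cells, measured with a cell viability readout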
Description: SANGER: Inhibition of human DSH1 cell growth in a cell viability assay.

EW-18 = experiment: cells; details: Homo sapiens;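 further: growth inhibition of EW-18 cells, read out by a cell viability assay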
Description: SANGER: Inhibition of human EW-18 cell growth in a cell viability assay.

GCT = experiment: cells; details: Homo sapiens;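 further: GCT cell line proliferation inhibition, read out with a cell viability assay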
Description: SANGER: Inhibition of human GCT cell growth in a cell viability assay.

GI-1 = experiment: cells; details: Homo sapiens;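 further: growth inhibition of human GI-1 cells, measured with a cell viability readout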
Description: SANGER: Inhibition of human GI-1 cell growth in a cell viability assay.

H-EMC-SS = experiment: cells; details: Homo sapiens
Description: SANGER: Inhibition of human H-EMC-SS cell growth in a cell viability assay.

HCC1569 = experiment: cells; details: Homo sapiens;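 further: growth inhibition of human HCC1569 cells, read out with a cell viability assay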
Description: SANGER: Inhibition of human HCC1569 cell growth in a cell viability assay.

HEL = experiment: cells; details: Homo sapiens;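 further: growth inhibition of HEL cells, read out with a cell viability assay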
Description: SANGER: Inhibition of human HEL cell growth in a cell viability assay.

HN = experiment: cells; details: Homo sapiens
Description: SANGER: Inhibition of human HN cell growth in a cell viability assay.

HSC-2 = experiment: cells; details: Homo sapiens;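 further: growth inhibition of human HSC-2 cells, read out by a cell viability assay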
Description: SANGER: Inhibition of human HSC-2 cell growth in a cell viability assay.

HT55 = experiment: cells; details: Homo sapiens;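 further: cell viability readout measuring growth inhibition of human HT55 cells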
Description: SANGER: Inhibition of human HT55 cell growth in a cell viability assay.

HTC-C3 = experiment: cells; details: Homo sapiens;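 further: inhibition of cell growth, read out with a cell viability assay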
Description: SANGER: Inhibition of human HTC-C3 cell growth in a cell viability assay.

Huh-7 = experiment: cells; details: Homo sapiens;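 further: HuH-7 cell growth inhibition, read out with a cell viability assay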
Description: SANGER: Inhibition of human HuH-7 cell growth in a cell viability assay.

IA-LM = experiment: cells; details: Homo sapiens;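 further: cell viability assay measuring growth inhibition of human IA-LM cells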
Description: SANGER: Inhibition of human IA-LM cell growth in a cell viability assay.

IST-SL1 = experiment: cells; details: Homo sapiens;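 further: growth inhibition of human IST-SL1 cells, read out with a cell viability assay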
Description: SANGER: Inhibition of human IST-SL1 cell growth in a cell viability assay.

JAR = experiment: cells; details: Homo sapiens;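 further: growth inhibition of human JAR cells determined with a cell viability assay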
Description: SANGER: Inhibition of human JAR cell growth in a cell viability assay.

JVM-3 = experiment: cells; details: Homo sapiens;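 further: growth inhibition of human JVM-3 cells, read out with a cell viability assay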
Description: SANGER: Inhibition of human JVM-3 cell growth in a cell viability assay.

KARPAS-45 = experiment: cells; details: Homo sapiens;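 further: inhibition of cell line growth, read out through a viability assay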
Description: SANGER: Inhibition of human KARPAS-45 cell growth in a cell viability assay.

LCLC-103H cell line = experiment: cells; details: Homo sapiens
Description: SANGER: Inhibition of human LCLC-103H cell growth in a cell viability assay.

LCLC-97TM1 = experiment: cells; details: Homo sapiens;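 further: cell viability assay measuring growth inhibition of human LCLC-97TM1 cells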
Description: SANGER: Inhibition of human LCLC-97TM1 cell growth in a cell viability assay.

LU-139 = experiment: cells; details: Homo sapiens
Description: SANGER: Inhibition of human LU-139 cell growth in a cell viability assay.

MDA-MB-453 = experiment: cells; details: Homo sapiens
Description: SANGER: Inhibition of human MDA-MB-453 cell growth in a cell viability assay.

MN-60 = experiment: cells; details: Homo sapiens;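 further: growth inhibition of the MN-60 cell line, determined with a cell viability assay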
Description: SANGER: Inhibition of human MN-60 cell growth in a cell viability assay.

MOLT-13 = experiment: cells; details: Homo sapiens;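 further: IC50 for suppression of MOLT-13 cell growth, read out with a cell viability assay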
Description: SANGER: Inhibition of human MOLT-13 cell growth in a cell viability assay.

MPP-89 = experiment: cells; details: Homo sapiens;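 further: growth inhibition of human MPP-89 cells, read out with a cell viability assay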
Description: SANGER: Inhibition of human MPP-89 cell growth in a cell viability assay.

NCI-H1666 = experiment: cells; details: Homo sapiens;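 further: growth inhibition of the cell line, read out with a cell viability assay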
Description: SANGER: Inhibition of human NCI-H1666 cell growth in a cell viability assay.

NCI-H1693 = experiment: cells; details: Homo sapiens;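 further: growth inhibition of the human cell line, read out with a cell viability assay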
Description: SANGER: Inhibition of human NCI-H1693 cell growth in a cell viability assay.

NCI-H23 = experiment: cells; details: Homo sapiens;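 further: cell viability assay measuring growth inhibition of NCI-H23 cells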
Description: SANGER: Inhibition of human NCI-H23 cell growth in a cell viability assay.

NCI-H292 = experiment: cells; details: Homo sapiens;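 further: growth inhibition of NCI-H292 cells, read out with a cell viability assay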
Description: SANGER: Inhibition of human NCI-H292 cell growth in a cell viability assay.

NCI-H520 = experiment: cells; details: Homo sapiens;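 further: growth inhibition of NCI-H520 cells, measured by a cell viability assay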
Description: SANGER: Inhibition of human NCI-H520 cell growth in a cell viability assay.

SNU1 = experiment: cells; details: Homo sapiens;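 further: growth inhibition of human NCI-SNU-1 cells, measured with a cell viability assay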
Description: SANGER: Inhibition of human NCI-SNU-1 cell growth in a cell viability assay.

NOMO-1 = experiment: cells; details: Homo sapiens;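 further: growth inhibition of human NOMO-1 cells measured by a cell viability assay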
Description: SANGER: Inhibition of human NOMO-1 cell growth in a cell viability assay.

NY = experiment: cells; details: Homo sapiens
Description: SANGER: Inhibition of human NY cell growth in a cell viability assay.

OC-314 = experiment: cells; details: Homo sapiens
Description: SANGER: Inhibition of human OC-314 cell growth in a cell viability assay.

OCUB-M = experiment: cells; details: Homo sapiens;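 further: growth inhibition of the cancer cell line, read out through a cell viability assay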
Description: SANGER: Inhibition of human OCUB-M cell growth in a cell viability assay.

OE33 = experiment: cells; details: Homo sapiens;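 further: growth inhibition of human OE33 cells, measured by a cell viability assay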
Description: SANGER: Inhibition of human OE33 cell growth in a cell viability assay.

OS-RC-2 = experiment: cells; details: Homo sapiens;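 further: growth inhibition of human OS-RC-2 cells, measured by a cell viability assay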
Description: SANGER: Inhibition of human OS-RC-2 cell growth in a cell viability assay.

OVCAR-8 = experiment: cells; details: Homo sapiens;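 further: growth inhibition of human OVCAR-8 cells, read out by a cell viability assay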
Description: SANGER: Inhibition of human OVCAR-8 cell growth in a cell viability assay.

P30-OHK = experiment: cells; details: Homo sapiens;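 further: growth inhibition of the P30-OHK cell line, read out with a cell viability assay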
Description: SANGER: Inhibition of human P30-OHK cell growth in a cell viability assay.

PSN1 = experiment: cells; details: Homo sapiens;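 further: suppression of growth of human PSN1 cells, read out by a cell viability assay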
Description: SANGER: Inhibition of human PSN1 cell growth in a cell viability assay.

RS4-11 = experiment: cells; details: Homo sapiens;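 further: growth inhibition of RS4-11 cells, read out by a cell viability assay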
Description: SANGER: Inhibition of human RS4-11 cell growth in a cell viability assay.

SBC-1 = experiment: cells; details: Homo sapiens
Description: SANGER: Inhibition of human SBC-1 cell growth in a cell viability assay.

SK-LU-1 = experiment: cells; details: Homo sapiens
Description: SANGER: Inhibition of human SK-LU-1 cell growth in a cell viability assay.

SK-MEL-2 = experiment: cells; details: Homo sapiens
Description: SANGER: Inhibition of human SK-MEL-2 cell growth in a cell viability assay.

SK-N-AS = experiment: cells; details: Homo sapiens
Description: SANGER: Inhibition of human SK-N-AS cell growth in a cell viability assay.

SK-N-FI = experiment: cells; details: Homo sapiens
Description: SANGER: Inhibition of human SK-N-FI cell growth in a cell viability assay.

SNU-449 = experiment: cells; details: Homo sapiens
Description: SANGER: Inhibition of human SNU-449 cell growth in a cell viability assay.

SW780 = experiment: cells; details: Homo sapiens
Description: SANGER: Inhibition of human SW780 cell growth in a cell viability assay.

SW948 = experiment: cells; details: Homo sapiens
Description: SANGER: Inhibition of human SW948 cell growth in a cell viability assay.

TE-1 = experiment: cells; details: Homo sapiens
Description: SANGER: Inhibition of human TE-1 cell growth in a cell viability assay.

5637 = experiment: cells; details: Homo sapiens
Description: SANGER: Inhibition of human 5637 cell growth in a cell viability assay.

8305C = experiment: cells; details: Homo sapiens
Description: SANGER: Inhibition of human 8305C cell growth in a cell viability assay.

8505C = experiment: cells; details: Homo sapiens
Description: SANGER: Inhibition of human 8505C cell growth in a cell viability assay.

A3-KAW = experiment: cells; details: Homo sapiens
Description: SANGER: Inhibition of human A3-KAW cell growth in a cell viability assay.

A673 = experiment: cells; details: Homo sapiens
Description: SANGER: Inhibition of human A673 cell growth in a cell viability assay.

ATN-1 = experiment: cells; details: Homo sapiens
Description: SANGER: Inhibition of human ATN-1 cell growth in a cell viability assay.

BB49-HNC = experiment: cells; details: Homo sapiens
Description: SANGER: Inhibition of human BB49-HNC cell growth in a cell viability assay.

C8166 = experiment: cells; details: Homo sapiens
Description: SANGER: Inhibition of human C8166 cell growth in a cell viability assay.

CAL-39 = experiment: cells; details: Homo sapiens
Description: SANGER: Inhibition of human CAL-39 cell growth in a cell viability assay.

CAL-51 = experiment: cells; details: Homo sapiens
Description: SANGER: Inhibition of human CAL-51 cell growth in a cell viability assay.

CAL-62 = experiment: cells; details: Homo sapiens
Description: SANGER: Inhibition of human CAL-62 cell growth in a cell viability assay.

TE-6 = experiment: cells; details: Homo sapiens
Description: SANGER: Inhibition of human TE-6 cell growth in a cell viability assay.

TE-8 = experiment: cells; details: Homo sapiens
Description: SANGER: Inhibition of human TE-8 cell growth in a cell viability assay.

UACC-893 = experiment: cells; details: Homo sapiens
Description: SANGER: Inhibition of human UACC-893 cell growth in a cell viability assay.

VMRC-RCZ = experiment: cells; details: Homo sapiens
Description: SANGER: Inhibition of human VMRC-RCZ cell growth in a cell viability assay.

YAPC = experiment: cells; details: Homo sapiens
Description: SANGER: Inhibition of human YAPC cell growth in a cell viability assay.

COLO-320-HSR = experiment: cells; details: Homo sapiens
Description: SANGER: Inhibition of human COLO-320-HSR cell growth in a cell viability assay.

- IC50 (IGR-1): 1050 nM
- IC50 (NCI-H810): 426 nM
- IC50 (786-0): 322 nM
SMILES: NC(=O)[C@@H](CCC(F)(F)F)N(Cc1ccc(-c2ncon2)cc1F)S(=O)(=O)c1ccc(Cl)cc1

- IC50 (D-392MG): > 2000 nM
- IC50 (D-566MG): 1410 nM
- IC50 (DMS-114): > 2000 nM
- IC50 (EM-2): 168 nM
- IC50 (ES7): 1110 nM
- IC50 (K5): 421 nM
- IC50 (L-363): > 2000 nM
- IC50 (LB1047-RCC): > 2000 nM
- IC50 (MEG-01): 424 nM
- IC50 (MHH-NB-11): > 2000 nM
- IC50 (NCI-H1581): 1390 nM
- IC50 (NCI-H446): > 2000 nM
- IC50 (A2780): 1010 nM
- IC50 (A-427): 1100 nM
- IC50 (AGS): 1110 nM
- IC50 (CHP-212): > 2000 nM
SMILES: CNC(=O)c1ccccc1Sc1ccc2c(/C=C/c3ccccn3)n[nH]c2c1 [AXITINIB]

- IC50 (KU812 cell line): 120 nM
- IC50 (LXF-289 cell line): 17.7 nM
- IC50 (A253 cell line): 88.2 nM
SMILES: CC[C@@H]1C(=O)N(C)c2cnc(Nc3ccc(C(=O)NC4CCN(C)CC4)cc3OC)nc2N1C1CCCC1 [BI-2536]
- IC50 (BC1 cell line): 226 nM

- IC50 (COLO-824): 7730 nM
- IC50 (COR-L88): 1560 nM
- IC50 (CaR-1): 2860 nM
- IC50 (D-566MG): 839 nM
- IC50 (DMS-273): 2150 nM
- IC50 (DSH1): 2160 nM
- IC50 (ES7): 1550 nM
- IC50 (EW-18): 833 nM
- IC50 (GCT): 2180 nM
- IC50 (GI-1): 2310 nM
- IC50 (H-EMC-SS): > 10000 nM
- IC50 (HCC1569): 4880 nM
- IC50 (HEL): 806 nM
- IC50 (HN): 1890 nM
- IC50 (HSC-2): 2130 nM
- IC50 (HT55): 1650 nM
- IC50 (HTC-C3): 2270 nM
- IC50 (Huh-7): 2310 nM
- IC50 (IA-LM): 1690 nM
- IC50 (IST-SL1): 2170 nM
- IC50 (JAR): 2320 nM
- IC50 (JVM-3): 1850 nM
- IC50 (KARPAS-45): 174 nM
- IC50 (LCLC-103H cell line): 2900 nM
- IC50 (LCLC-97TM1): 2150 nM
- IC50 (LU-139): 823 nM
- IC50 (MDA-MB-453): 2240 nM
- IC50 (MN-60): 1030 nM
- IC50 (MOLT-13): 739 nM
- IC50 (MPP-89): 7600 nM
- IC50 (NCI-H1666): 2280 nM
- IC50 (NCI-H1693): > 10000 nM
- IC50 (NCI-H23): 1550 nM
- IC50 (NCI-H292): 2870 nM
- IC50 (NCI-H520): > 10000 nM
- IC50 (SNU1): 1020 nM
- IC50 (NOMO-1): 2190 nM
- IC50 (NY): > 10000 nM
- IC50 (OC-314): 2230 nM
- IC50 (OCUB-M): 3550 nM
- IC50 (OE33): 4880 nM
- IC50 (OS-RC-2): 1870 nM
- IC50 (OVCAR-8): 1540 nM
- IC50 (P30-OHK): 836 nM
- IC50 (PSN1): 2290 nM
- IC50 (RS4-11): 832 nM
- IC50 (SBC-1): 794 nM
- IC50 (SK-LU-1): > 10000 nM
- IC50 (SK-MEL-2): 809 nM
- IC50 (SK-N-AS): 988 nM
- IC50 (SK-N-FI): 4940 nM
- IC50 (SNU-449): 2890 nM
- IC50 (SW780): 4860 nM
- IC50 (SW948): 2180 nM
- IC50 (TE-1): 791 nM
- IC50 5637: 2320 nM
- IC50 (8305C): 2870 nM
- IC50 (8505C): 1020 nM
- IC50 (A3-KAW): 401 nM
- IC50 (A673): 2260 nM
- IC50 (ATN-1): 740 nM
- IC50 (BB49-HNC): > 10000 nM
- IC50 (C8166): 2210 nM
- IC50 (CAL-39): 2240 nM
- IC50 (CAL-51): 2170 nM
- IC50 (CAL-62): 3550 nM
- IC50 (TE-6): 4940 nM
- IC50 (TE-8): 2160 nM
- IC50 (UACC-893): > 10000 nM
- IC50 (VMRC-RCZ): > 10000 nM
- IC50 (YAPC): > 10000 nM
- IC50 (COLO-320-HSR): 1880 nM
SMILES: O=C(CCCCCCC(=O)Nc1ccccc1)NO [VORINOSTAT]

— ChEMBL document CHEMBL1201861, “Genomics of Drug Sensitity in Cancer screening data, Wellcome Trust Sanger Institute”
